Several values for one entry are separate records, joined by “and”; a condition that tells them apart may be missing. Equal values may be shown once. Activity calls are given as the source filed them.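 Rule for the calls: active = EC50 under a set limit in control cells lacking the mosquito receptor, marking a fluorescence artifact; inactive = the rest.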
target: HEK293 Galpha15/GCaMP6s without NPYLR7, calcium fluorescence; assay: calcium response in NPYLR7-null HEK293 cells, dose response, counter-screen for mosquito NPYLR7 agonist project, cell-based, HEK293 lacking NPYLR7 (AID 1259426);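 note: potency for a rise in fluorescence over baseline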

| SMILES | EC50 |
| --- | --- |
| Cc1nc2ncccc2cc1C(=O)N1CCC2(CCNC(=O)CC2)CC1 | > 20 µM (inactive) |
| Cc1ccc(Nc2nc(Nc3cccc(F)c3)nc3nccnc23)c(C)c1 | > 20 µM (inactive) |
| N#CC(=Cc1c(F)c(F)c(F)c(F)c1F)c1ccccn1 | > 20 µM (inactive) |
| O=c1oc2cc(O)ccc2cc1-c1nc2ccccc2o1 | 4.91 µM |
| COc1cc(C=C2C=c3c(O)cccc3=C2O)cc(Cl)c1O | 0.524 µM |
| CC(C)c1nc(NC(=O)c2[nH]ncc2Br)n(C)n1 | 1.5 µM |
| CCOC(=O)N1CCN(c2ccc(/C=C(\C#N)c3nc4ccccc4n3C)o2)CC1 | > 20 µM (inactive) |
| O=C1/C(=C/c2cccc(F)c2)Oc2c1ccc(O)c2CN1CCN(CCO)CC1 | 13.9 µM |
| Nc1nc(Cl)nc2c1ncn2[C@@H]1O[C@H](CO)[C@H](O)C1O (stereo partly specified) | 1.42 µM |
| Cc1[nH]c(/C=C2\C(=O)Nc3ccccc32)c(C)c1CCC(=O)O | < 0.039 µM |
| COc1ccc(NC[C@@H]2C=C(C)[C@H](Cc3nnc(C)o3)C[C@H]2C(C)C)cn1 | 13.3 µM |
| O[C@@H]1CN(Cc2ccncc2Cl)CC[C@H]1c1ccc2c(c1)OCO2 | > 20 µM (inactive) |
| COCCOc1ccc(NC(=O)N(C)C(C)C2(C)CC2)cn1 (stereo unspecified) | > 20 µM (inactive) |
| COc1ccc(NCc2ccc(OC)c(Br)c2)cn1 | 5.12 µM |
| O=C1c2cccc3c(NCCO)ccc(c23)C(=O)N1CCO | 0.0846 µM |
| CCOc1cc(/C=C(\C#N)c2nc3ncc(Br)cc3[nH]2)ccc1O | 2.3 µM |
| O=C1Nc2ccccc2C1C=NN1CCOCC1 (stereo unspecified) | > 20 µM (inactive) |
| Cc1cc(O)c(CN2CCN(C)CC2)c2c1C(=O)/C(=C/c1cccs1)O2 | 16.8 µM |
| CCN(CC)c1ccc2c(-c3ccccc3C(=O)O)c3ccc(=[N+](CC)CC)cc-3oc2c1 | 3.62 µM |
| COc1cc(Br)c(O)c(/C=N\n2c(C)n[nH]c2=S)c1 | > 20 µM (inactive) |
| CCN1CC=C2C(C#N)C(=N)C(C#N)(C#N)C(c3cccs3)C2C1 (stereo unspecified) | > 20 µM (inactive) |
| O=C(Cc1ccc2c(c1)CCC2)NCC1CCN(c2ccccc2)C1 (stereo unspecified) | > 20 µM (inactive) |
| COc1cc(C=C(C#N)C(=O)OC(C)C)cc(Cl)c1O | > 20 µM (inactive) |
| CS(=O)(=O)c1ccc(-c2cccc3c2OC(CNC(=O)c2cc[n+]([O-])cc2)C3)cc1 (stereo unspecified) | > 20 µM (inactive) |
| COc1ccc(C(=O)C=Cc2cc(Br)c(O)c(OC)c2)cc1F | < 0.039 µM |
| O=C(COc1ccccc1)N1CCCC(CNS(=O)(=O)c2cccs2)C1 (stereo unspecified) | > 20 µM (inactive) |

| SMILES | EC50 |
| --- | --- |
| CC1CC2(C)Oc3ccccc3C3OCC1(CO)C(C)C32 (stereo unspecified) | > 20 µM (inactive) |
| CC[n+]1c(/C=C/C=C2/N(C)c3ccccc3C2(C)C)sc2ccccc21 | > 20 µM (inactive) |
| CCN1CCN(Cc2c(O)cc(C)c3c2O/C(=C\c2ccco2)C3=O)CC1 | 9.72 µM |
| Cc1cc(C=C2Sc3ccccc3N2C)cc(C)[n+]1Cc1ccncc1 | 18.9 µM |
| CC(C)C(C(=O)O)N1C(=O)/C(=C/c2ccc(O)cc2)SC1=S (stereo unspecified) | 8.26 µM |
| COc1ccccc1OCCCOc1ccc(Br)cc1Cl | > 20 µM (inactive) |
| Cc1c(NC(=O)COC(=O)C(C#N)=Cc2ccc(N(C)C)cc2)c(=O)n(-c2ccccc2)n1C | > 20 µM (inactive) |
| CCOc1cc(C=O)c(O)c(C=O)c1 | 0.893 µM |
| O=C(Nc1cccc(-c2nnco2)c1)C1CCCCC1 | > 20 µM (inactive) |
| Clc1cccc2ccc(CN3CCn4cncc4C3)nc12 | 19.2 µM |
| COc1ccc(Cl)cc1NC(=O)/C(C#N)=C/c1coc2ccc(C)cc2c1=O | > 20 µM (inactive) |
| COc1cccc(-n2c(O)c(C=Nc3cc(OC)ccc3OC)c3ccccc3c2=O)c1 | > 20 µM (inactive) |
| NC(=O)CN1c2cccc3cccc(c23)S1(=O)=O | > 20 µM (inactive) |
| COc1ccc(C(=O)N(Cc2ccccc2)C2CCC(NC(=O)C3CCN(C(=O)c4ccccc4Cl)CC3)CC2)cc1 (stereo unspecified) | > 20 µM (inactive) |
| Nc1ccc2c3c(cccc13)C(=O)NC2=O | 2.07 µM |
| O=[N+]([O-])c1cc(S(=O)(=O)Nc2cc(Cl)ccc2F)ccc1F | > 20 µM (inactive) |
| NC(=S)N/N=c1\oc2cc(O)ccc2cc1-c1nc2ccccc2[nH]1 | 0.155 µM |
| Cc1cc2c(c(-c3ccc4c(cnn4C)c3)c1)OC(CN)C2 (stereo unspecified) | > 20 µM (inactive) |
| N#CC1C(=N)Oc2cc(N)ccc2C1c1c(Cl)cccc1Cl (stereo unspecified) | > 20 µM (inactive) |
| CN1C(=CC=C2C(=O)Oc3ccccc3C2=O)C(C)(C)c2ccccc21 | 1.98 µM |
| COc1ccc(C(=O)C=Cc2cc(OC)c(O)c(OC)c2)cc1F | 5.86 µM |
| CCCc1nn2c(N)c(C=C3C=C(Cl)C(=O)C(Cl)=C3)c(=O)nc2s1 | > 20 µM (inactive) |
| COc1ccc(CC2c3cc(OC)c(OC)cc3CC[N+]2(C)CCC(=O)OCCCCCOC(=O)CC[N+]2(C)CCc3cc(OC)c(OC)cc3C2Cc2ccc(OC)c(OC)c2)cc1OC (stereo unspecified) | > 20 µM (inactive) |
| Cn1c(/C(C#N)=C/c2ccc(N3CCOCC3)o2)nc2ccccc21 | > 20 µM (inactive) |
| CCN1CCc2c(sc(NC(=O)c3ccccc3)c2-c2nc3ccccc3s2)C1 | > 20 µM (inactive) |
| CC[C@@]1(O)C(=O)OCc2c1cc1n(c2=O)Cc2cc3c(CN(C)C)c(O)ccc3nc2-1 | 0.188 µM and 1.35 µM |

| SMILES | EC50 |
| --- | --- |
| CCCC[n+]1c(C)cc(C=C2Sc3ccccc3N2CC)cc1C | 18.7 µM |
| N#CC(C#N)=Cc1ccc(O)c(O)c1 | > 20 µM (inactive) |
| COc1cc(C=C(C#N)S(=O)(=O)c2cc(Br)ccc2Br)ccc1O | 19.5 µM |
| CCCCCN=C(N)NN=Cc1c[nH]c2ccc(OC)cc12 | > 20 µM (inactive) |
| O=C(c1cnn(-c2ccccc2)n1)N1CCCC(COCc2ccccc2)C1 (stereo unspecified) | 0.513 µM |
| COc1cc(/C=C(\C#N)C(=O)c2ccc(O)c(O)c2)cc(I)c1O | 6.08 µM |
| Nc1ccc(Oc2cc(N)cc(Oc3ccccc3)c2)cc1 | 18.3 µM |
| CC1CN(c2ccc(/C=C(\C#N)c3nc4ccccc4[nH]3)o2)CC(C)O1 (stereo unspecified) | > 20 µM (inactive) |
| COC(=O)c1cc(N)c(/C=C/c2cccs2)s1 | 0.577 µM |
| O=C1c2cccc3c(Nc4ccccc4)ccc(c23)C(=O)N1c1ccccc1 | 5.39 µM |
| COc1ccc2c(C)nc(N=C(N)N)nc2c1 | > 20 µM (inactive) |
| CC(C)N1CCc2c(sc(NC(=O)C3CC3)c2-c2nc3ccccc3s2)C1 | 4.79 µM |
| O=c1oc2cc(O)ccc2cc1-c1nc2ccccc2s1 | 0.0533 µM |
| COCCCNCc1c(-c2ccc(F)cc2)noc1N1CCOCC1 | > 20 µM (inactive) |
| CN1C(=S)N(CCCN2CCOCC2)C(=O)/C1=C/c1ccc(N(C)C)cc1 | > 20 µM (inactive) |
| CC1=NCCc2c1[nH]c1cc(O)ccc21 | 0.419 µM |
| COc1cc(OC)c(C2=NOC3(CC(=O)N(c4cccc(Cl)c4)C3=O)C2)cc1OC (stereo unspecified) | > 20 µM (inactive) |
| N#CC(C#N)=C1C=C2C=C(N3CCCCCC3)CCC2CC1 (stereo unspecified) | < 0.039 µM |
| Cc1nn(C)c(Cl)c1/C=C1/CCCc2c1nc1ccccc1c2C(=O)O | > 20 µM (inactive) |
| CCOC(=O)C1CCN(C(=O)CC(c2cccc(C(F)(F)F)c2)c2c[nH]c3c(CC)cccc23)CC1 (stereo unspecified) | > 20 µM (inactive) |
| C[C@@H](NC(=O)CN1Cc2ccc(N3CCOCC3)nc2C1=O)c1ccccc1 | > 20 µM (inactive) |
| COc1ccccc1N=c1oc2cc(O)ccc2cc1-c1nc2ccccc2[nH]1 | 0.805 µM |
| COc1ccc(/C=C2\Oc3c(ccc4c3CN(Cc3ccncc3)CO4)C2=O)cc1OC | 9.55 µM |
| C=CCC1=CC(=Cc2c(N)n3nc(Cc4cccs4)sc3nc2=O)C=C(OC)C1=O | 2.43 µM |
